Measurements reported in the supplement of paper PMC4862054.

Experiments:
[1] = test system: SK-BR-3; experiment: normalised viability (% of control), CellTiter-Blue; higher = more viable cells (about 100 = DMSO control); conditions: incubation time: 72 h
Method in brief: (§1)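 Seeded at 20 µl suspension per well onto compound-loaded 384-well plates, breast cancer cell lines were incubated 72 h. CellTiter-Blue fluorescence at 560/590 nm was then read, with each plate normalised to vehicle (100) and a positive kill control (0). Normalised viability is reported at a single listed concentration of the series.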

[2] = test system: CAL-51; experiment: as above; conditions: incubation time: 72 h
Method in brief: as §1

[3] = test system: BT-474; experiment: as above; conditions: incubation time: 72 h
Method in brief: as §1

[4] = test system: MDA-MB-231; experiment: as above; conditions: incubation time: 72 h
Method in brief: as §1

[5] = test system: MFM-223; experiment: as above; conditions: incubation time: 72 h
Method in brief: as §1

[6] = test system: CAL-148; experiment: as above; conditions: incubation time: 72 h
Method in brief: as §1

[7] = test system: Hs578T; experiment: as above; conditions: incubation time: 72 h
Method in brief: as §1

[8] = test system: HCC1599; experiment: as above; conditions: incubation time: 72 h
Method in brief: as §1

[9] = test system: HCC1937; experiment: as above; conditions: incubation time: 72 h
Method in brief: as §1

[10] = test system: HDQ-P1; experiment: as above; conditions: incubation time: 72 h
Method in brief: as §1

[11] = test system: MDA-MB-468; experiment: as above; conditions: incubation time: 72 h
Method in brief: as §1

[12] = test system: MDA-MB-453; experiment: as above; conditions: incubation time: 72 h
Method in brief: as §1

[13] = test system: MDA-MB-436; experiment: as above; conditions: incubation time: 72 h
Method in brief: as §1

[14] = test system: CAL-85-1; experiment: as above; conditions: incubation time: 72 h
Method in brief: as §1

[15] = test system: DU-4475; experiment: as above; conditions: incubation time: 72 h
Method in brief: as §1

[16] = test system: BT-549; experiment: as above; conditions: incubation time: 72 h
Method in brief: as §1

[17] = test system: CAL-120; experiment: as above; conditions: incubation time: 72 h
Method in brief: as §1

[18] = test system: HCC1143; experiment: as above; conditions: incubation time: 72 h
Method in brief: as §1

[19] = test system: MFM-223; conditions: 72 h
Method in brief: (§2)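 Compound dissolved in 5 µl medium was placed in 384-well plates before 20 µl of breast cancer cell suspension was added, and the plates were incubated for 72 h. Cells then received 2.5 µl CellTiter-Blue for 2 h at 37 °C, and fluorescence was read at 560/590 nm. EC50 values come from percent-inhibition dose-response fits that were censored at the highest concentration, with plates normalised to vehicle and a positive kill control and rows with a zero drug sensitivity score excluded.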

[20] = test system: HCC1599; conditions: 72 h
Method in brief: as §2

[21] = test system: MDA-MB-436; conditions: 72 h
Method in brief: as §2

[22] = test system: BT-549; conditions: 72 h
Method in brief: as §2

[23] = test system: CAL-120; conditions: 72 h
Method in brief: as §2

[24] = test system: HCC1143; conditions: 72 h
Method in brief: as §2

CS(=O)(=O)N1CCN(Cc2cc3nc(-c4cccc5[nH]ncc45)nc(N4CCOCC4)c3s2)CC1 [GDC-0941]
Conditions	normalised viability [%]
[1], 10 nM	92.3
[1], 1000 nM	24.1
[1], 10000 nM	8.8
[2], 3 nM	117
[2], 30 nM	106
[2], 100 nM	89.4
[3], 10 nM	109
[3], 1000 nM	41.3
[3], 10000 nM	11
[4], 10 nM	90.8
[4], 1000 nM	63.4
[4], 10000 nM	35.2
[5], 10 nM	95.7
[5], 1000 nM	43.5
[5], 10000 nM	13.1
[6], 3 nM	82.4
[6], 30 nM	85.8
[6], 100 nM	83.2
[7], 10 nM	112
[7], 1000 nM	62.3
[7], 10000 nM	19.6
[8], 10 nM	96.8
[8], 1000 nM	55
[8], 10000 nM	28
[9], 10 nM	114
[9], 1000 nM	60.8
[9], 10000 nM	25.5
[10], 3 nM	93.6
[10], 30 nM	93.8
[10], 100 nM	69.3
[11], 10 nM	108
[11], 1000 nM	62.8
[11], 10000 nM	17
[12], 3 nM	109
[12], 30 nM	85.1
[12], 100 nM	76.2
[13], 10 nM	97.7
[13], 1000 nM	68.1
[13], 10000 nM	22.9
[14], 30 nM	77.7
[14], 100 nM	83.5
[15], 3 nM	107
[15], 30 nM	98.8
[15], 100 nM	95.5
[16], 10 nM	85.6
[16], 1000 nM	60.9
[16], 10000 nM	14.1
[17], 10 nM	89.6
[17], 1000 nM	53.7
[17], 10000 nM	20.8
[18], 10 nM	73.2
[18], 1000 nM	52.1
[18], 10000 nM	21.2

Conditions	EC50, CellTiter-Blue viability [nM]
[19]	721
[20]	709
[21]	2390
[22]	1540
[23]	990
[24]	882

Cc1c(CN2CCN(C(=O)[C@H](C)O)CC2)sc2c(N3CCOCC3)nc(-c3cnc(N)nc3)nc12 [GDC-0980]
normalised viability [%]
Conditions	3 nM	10 nM	30 nM	100 nM	1000 nM	10000 nM
[1]	–	102	–	–	15.9	9.04
[2]	112	–	98.5	71.9	–	–
[3]	–	115	–	–	22.1	12.3
[4]	–	95.6	–	–	27.6	23.6
[5]	–	86.1	–	–	18.1	14.2
[6]	100	–	94.5	87.6	–	–
[7]	–	121	–	–	28.9	17.1
[8]	–	95	–	–	39.7	35.3
[9]	–	113	–	–	39.7	26.2
[10]	91.9	–	84.3	70.8	–	–
[11]	–	105	–	–	44.4	10.7
[12]	116	–	77.8	56.1	–	–
[13]	–	81.2	–	–	44.7	18.2
[14]	102	–	83.3	89.2	–	–
[15]	102	–	82.1	83.5	–	–
[16]	–	88.7	–	–	33.3	13.6
[17]	–	103	–	–	24.1	13.7
[18]	–	88.7	–	–	33.8	15.6

Conditions	EC50, CellTiter-Blue viability [nM]
[19]	139
[20]	103
[21]	783
[22]	386
[23]	181
[24]	306

C[C@]12O[C@H](C[C@]1(O)CO)n1c3ccccc3c3c4c(c5c6ccccc6n2c5c31)CNC4=O [Lestaurtinib]
normalised viability [%]
Conditions	0.3 nM	1 nM	3 nM	10 nM	100 nM	1000 nM
[1]	–	108	–	–	102	37.2
[2]	113	–	108	106	–	–
[3]	–	120	–	–	110	69
[4]	–	112	–	–	104	62.6
[5]	–	97.6	–	–	80.9	42.8
[6]	96.8	–	98.6	98.3	–	–
[7]	–	110	–	–	122	63.3
[8]	–	102	–	–	94.6	64.8
[9]	–	89	–	–	77.4	31.3
[10]	119	–	112	126	–	–
[11]	–	107	–	–	106	51
[12]	126	–	98.4	104	–	–
[13]	–	102	–	–	93.4	55.5
[14]	106	–	97.8	102	–	–
[15]	93.2	–	104	100	–	–
[16]	–	88.3	–	–	101	41.8
[17]	–	108	–	–	60.7	47.5
[18]	–	107	–	–	89.8	61.6

Conditions	EC50, CellTiter-Blue viability [nM]
[19]	133
[20]	201
[21]	202
[22]	672
[23]	65.5
[24]	151
